Where two headings read alike, the source gives them in different places.
Assays:
pLAI reporter virus = test: microbe, parasite or virus in culture; type: cell-based, HIV; conditions: Human immunodeficiency virus 1, MT4, 72 h
HIV-1 (IIIB) = test: microbe, parasite or virus in culture; type: cell-based; conditions: Human immunodeficiency virus 1, IIIB, MT4, 120 h, read-out: MT4 EC50
Protocol: Compounds were tested in a high-throughput 384-well assay format for their ability to inhibit the replication of HIV-1 (IIIB) in MT-4 cells. Compounds were serially diluted (1:3) in DMSO on 384-well polypropylene plates and further diluted 200-fold into complete RPMI media (10% FBS, 1% P/S) using the Biotek Micro Flow and Labcyte ECHO acoustic dispenser. Each plate contained up to 8 test compounds, with negative (No Drug Control) and 5 μM AZT positive controls. MT-4 cells were pre-infected with 10 μL of either RPMI (mock-infected) or a fresh 1:250 dilution of HIV-1 IIIB concentrated virus stock. Infected and uninfected MT-4 cells were further diluted in complete RPMI media and added to each plate using a Micro Flow dispenser. After 5 days incubation in a humidified and temperature controlled incubator (37° C.), Cell Titer Glo (Promega) was added to the assay plates and chemiluminescence read using an Envision plate-reader.

in vitro = conditions: human, uninfected MT-4 cells
Protocol: Compounds were serially diluted (1:3) in DMSO on 384-well polypropylene plates and further diluted 200-fold into complete RPMI media (10% FBS, 1% P/S) using the Biotek Micro Flow and Labcyte ECHO acoustic dispenser. […] Infected and uninfected MT-4 cells were further diluted in complete RPMI media and added to each plate using a Micro Flow dispenser. After 5 days incubation in a humidified and temperature controlled incubator (37° C.), Cell Titer Glo (Promega) was added to the assay plates and chemiluminescence read using an Envision plate-reader.
Assays were performed as above except uninfected MT-4 cells were added to each well containing test compound. In addition, 10 μM puromycin was added to the last column of each assay plate to assess a base level of cytotoxicity.

[1] = HIV-1 (IIIB) in MT-4 cells, 5 days incubation, Cell Titer Glo

## C[C@H]1CC[C@]2(COCO2)[C@H]2CN1C(=O)c1c(O)c(=O)c(C(=O)NCc3c(F)cc(F)cc3F)cn12 [Example 130, (3′S,4R,7′R)-12′-hydroxy-3′-methyl-1′,11′-dioxo-N-(2,4,6-trifluorobenzyl)-1′,4′,5′,11′-tetrahydro-3′H,7′H-spiro[[1,3]dioxolane-4,6′-[2,7]methanopyrido[1,2-a][1,4]diazonine]-10′-carboxamide]
pLAI reporter virus; read-out: RLUC 50% HS EC50
  EC50: 363 nM
pLAI reporter virus; read-out: RLUC CCM EC50
  EC50: 0.2 nM
HIV-1 (IIIB); [1]
  EC50: 0.9 nM
In vitro
  CC50 at 5 days: 9840 nM

## C[C@H]1CC[C@@]2(COCO2)[C@H]2CN1C(=O)c1c(O)c(=O)c(C(=O)NCc3c(F)cc(F)cc3F)cn12 [Example 131, (3′S,4S,7′R)-12′-hydroxy-3′-methyl-1′,11′-dioxo-N-(2,4,6-trifluorobenzyl)-1′,4′,5′,11′-tetrahydro-3′H,7′H-spiro[[1,3]dioxolane-4,6′-[2,7]methanopyrido[1,2-a][1,4]diazonine]-10′-carboxamide]
pLAI reporter virus; read-out: RLUC 50% HS EC50
  EC50: 8.1 nM
pLAI reporter virus; read-out: RLUC CCM EC50
  EC50: 0.5 nM
HIV-1 (IIIB); [1]
  EC50: 1.9 nM
In vitro
  CC50 at 5 days: 28900 nM

## C[C@@H]1OC[C@]2(CC[C@H](C)N3C[C@H]2n2cc(C(=O)NCc4c(F)cc(F)cc4F)c(=O)c(O)c2C3=O)O1 [Example 133, (2R,3′S,4R,7′R)-12′-hydroxy-2,3′-dimethyl-1′,11′-dioxo-N-(2,4,6-trifluorobenzyl)-1′,4′,5′,11′-tetrahydro-3′H,7′H-spiro[[1,3]dioxolane-4,6′-[2,7]methanopyrido[1,2-a][1,4]diazonine]-10′-carboxamide]
pLAI reporter virus; read-out: RLUC 50% HS EC50
  EC50: 102 nM
pLAI reporter virus; read-out: RLUC CCM EC50
  EC50: 0.5 nM
HIV-1 (IIIB); [1]
  EC50: 1.7 nM
In vitro
  CC50 at 5 days: 20200 nM

## C[C@H]1CC[C@]2(CO[C@H](Cc3ccccc3)O2)[C@H]2CN1C(=O)c1c(O)c(=O)c(C(=O)NCc3c(F)cc(F)cc3F)cn12 [Example 134, (2S,3′S,4R,7′R)-2-benzyl-12′-hydroxy-3′-methyl-1′,11′-dioxo-N-(2,4,6-trifluorobenzyl)-1′,4′,5′,11′-tetrahydro-3′H,7′H-spiro[[1,3]dioxolane-4,6′-[2,7]methanopyrido[1,2-a][1,4]diazonine]-10′-carboxamide]
pLAI reporter virus; read-out: RLUC 50% HS EC50
  EC50: 6.3 nM
pLAI reporter virus; read-out: RLUC CCM EC50
  EC50: 1.9 nM
HIV-1 (IIIB)
  EC50: 4.8 nM
In vitro
  CC50 at 5 days: 8500 nM

## C[C@H]1CC[C@]2(COC(Cc3ccccc3)O2)[C@H]2CN1C(=O)c1c(O)c(=O)c(C(=O)NCc3c(F)cc(F)cc3F)cn12 (stereo partly drawn) [Example 135, (2R,3′S,4R,7′R)-2-benzyl-12′-hydroxy-3′-methyl-1′,11′-dioxo-N-(2,4,6-trifuorobenzyl)-1′,4′,5′,11′-tetrahydro-3′H, 7′H-spiro(f[,3]dioxolane-4,6′-[2,7]methanopyrido[1,2-a][1,4]diazonine]-10′-carboxamide]
pLAI reporter virus; read-out: RLUC 50% HS EC50
  EC50: 581 nM
pLAI reporter virus; read-out: RLUC CCM EC50
  EC50: 2.6 nM
HIV-1 (IIIB); [1]
  EC50: 7.1 nM
In vitro
  CC50 at 5 days: 6880 nM

## C[C@H]1CC[C@@]2(COC(Cc3ccccc3)O2)[C@H]2CN1C(=O)c1c(O)c(=O)c(C(=O)NCc3c(F)cc(F)cc3F)cn12 (stereo partly drawn) [Example 136, (3′S,4S,7′R)-2-benzyl-12′-hydroxy-3′-methyl-1′,11′-dioxo-N-(2,4,6-trifluorobenzyl)-1′,4′,5′,11′-tetrahydro-3′H,7′H-spiro[[1,3]dioxolane-4,6′-[2,7]methanopyrido[1,2-a][1,4]diazonine]-10′-carboxamide]
pLAI reporter virus; read-out: RLUC 50% HS EC50
  EC50: 8.7 nM
pLAI reporter virus; read-out: RLUC CCM EC50
  EC50: 1.7 nM
HIV-1 (IIIB)
  EC50: 5.8 nM
In vitro
  CC50 at 5 days: 16600 nM

## C[C@H]1CC[C@]2(COC(C)(C)O2)[C@H]2CN1C(=O)c1c(O)c(=O)c(C(=O)NCc3c(F)cc(F)cc3F)cn12 [Example 137, (3′S,4R,7′R)-12′-hydroxy-2,2,3′-trimethyl-1′,11′-dioxo-N-(2,4,6-trifluorobenzyl)-1′,4′,5′,11′-tetrahydro-3′H,7′H-spiro[[1,3]dioxolane-4,6′-[2,7]methanopyrido[1,2-a][1,4]diazonine]-10′-carboxamide]
pLAI reporter virus; read-out: RLUC 50% HS EC50
  EC50: 13.3 nM
pLAI reporter virus; read-out: RLUC CCM EC50
  EC50: 0.3 nM
HIV-1 (IIIB); [1]
  EC50: 1.5 nM
In vitro
  CC50 at 5 days: 42400 nM

## C[C@H]1CC[C@@]2(COC(C)(C)O2)[C@H]2CN1C(=O)c1c(O)c(=O)c(C(=O)NCc3c(F)cc(F)cc3F)cn12 [Example 138, (3′S,4S,7′R)-12′-hydroxy-2,2,3′-trimethyl-1′,11′-dioxo-N-(2,4,6-trifluorobenzyl)-1′,4′,5′,11′-tetrahydro-3′H,7′H-spiro[[1,3]dioxolane-4,6′-[2,7]methanopyrido[1,2-a][1,4]diazonine]-10′-carboxamide]
pLAI reporter virus; read-out: RLUC 50% HS EC50
  EC50: 13.1 nM
pLAI reporter virus; read-out: RLUC CCM EC50
  EC50: 0.5 nM
HIV-1 (IIIB); [1]
  EC50: 2 nM
In vitro
  CC50 at 5 days: 23200 nM

## C[C@H]1CC[C@]2(COCCO2)[C@H]2CN1C(=O)c1c(O)c(=O)c(C(=O)NCc3c(F)cc(F)cc3F)cn12 [Example 139, (2R,3′S,7′R)-12′-hydroxy-3′-methyl-1′,11′-dioxo-N-(2,4,6-trifluorobenzyl)-1′,4′,5′,11′-tetrahydro-3′H,7′H-spiro[[1,4]dioxane-2,6′-[2,7]methanopyrido[1,2-a][1,4]diazonine]-10′-carboxamide]
pLAI reporter virus; read-out: RLUC 50% HS EC50
  EC50: 83.7 nM
pLAI reporter virus; read-out: RLUC CCM EC50
  EC50: 0.1 nM
HIV-1 (IIIB); [1]
  EC50: 1.4 nM
In vitro
  CC50 at 5 days: 30900 nM

## C[C@H]1CC[C@@]2(COCCO2)[C@H]2CN1C(=O)c1c(O)c(=O)c(C(=O)NCc3c(F)cc(F)cc3F)cn12 [Example 140, (2S,3′S,7′R)-12′-hydroxy-3′-methyl-1′,11′-dioxo-N-(2,4,6-trifluorobenzyl)-1′,4′,5′,11′-tetrahydro-3′H,7′H-spiro[[1,4]dioxane-2,6′-[2,7]methanopyrido[1,2-a][1,4]diazonine]-10′-carboxamide]
pLAI reporter virus; read-out: RLUC 50% HS EC50
  EC50: 1.7 nM
pLAI reporter virus; read-out: RLUC CCM EC50
  EC50: 0.1 nM
HIV-1 (IIIB); [1]
  EC50: 1.8 nM
In vitro
  CC50 at 5 days: 22800 nM

## C[C@H]1CC[C@]2(COC(F)(F)O2)[C@H]2CN1C(=O)c1c(O)c(=O)c(C(=O)NCc3c(F)cc(F)cc3F)cn12 [Example 141, (3′S,4R,7′R)-2,2-difluoro-12′-hydroxy-3′-methyl-1′,11′-dioxo-N-(2,4,6-trifluorobenzyl)-1′,4′,5′,11′-tetrahydro-3′H,7′H-spiro[[1,3]dioxolane-4,6′-[2,7]methanopyrido[1,2-a][1,4]diazonine]-10′-carboxamide]
pLAI reporter virus; read-out: RLUC 50% HS EC50
  EC50: 263 nM
pLAI reporter virus; read-out: RLUC CCM EC50
  EC50: 0.2 nM
HIV-1 (IIIB); [1]
  EC50: 0.9 nM
In vitro
  CC50 at 5 days: 30400 nM

## C[C@H]1CCC2(N=c3ccccc3=N2)[C@H]2CN1C(=O)c1c(O)c(=O)c(C(=O)NCc3c(F)cc(F)cc3F)cn12 [Example 142, (3′S,7′R)-12′-hydroxy-3′-methyl-1′,11′-dioxo-N-(2,4,6-trifluorobenzyl)-1′,4′,5′,11′-tetrahydro-3′H,7′H-spiro[benzo[d]imidazole-2,6′-[2,7]methanopyrido[1,2-a][1,4]diazonine]-10′-carboxamide]
pLAI reporter virus; read-out: RLUC 50% HS EC50
  EC50: 0.7 nM
pLAI reporter virus; read-out: RLUC CCM EC50
  EC50: 0.5 nM
HIV-1 (IIIB)
  EC50: 3.9 nM
In vitro
  CC50 at 5 days: ≥ 50000 nM

## C[C@H]1CC[C@]2(Cc3ccccc3O2)[C@H]2CN1C(=O)c1c(O)c(=O)c(C(=O)NCc3c(F)cc(F)cc3F)cn12 [Example 143, (2S,3′S,7′R)-12′-hydroxy-3′-methyl-1′,11′-dioxo-N-(2,4,6-trifluorobenzyl)-1′,4′,5′,11′-tetrahydro-3H,3′H,7′H-spiro[benzofuran-2,6′-[2,7]methanopyrido[1,2-a][1,4]diazonine]-10′-carboxamide]
pLAI reporter virus; read-out: RLUC 50% HS EC50
  EC50: 78.4 nM
pLAI reporter virus; read-out: RLUC CCM EC50
  EC50: 0.1 nM
HIV-1 (IIIB); [1]
  EC50: 1.4 nM
In vitro
  CC50 at 5 days: 24400 nM

## C[C@H]1CC[C@@]2(Cc3ccccc3O2)[C@H]2CN1C(=O)c1c(O)c(=O)c(C(=O)NCc3c(F)cc(F)cc3F)cn12 [Example 144, (2R,3′S,7′R)-12′-hydroxy-3′-methyl-1′,11′-dioxo-N-(2,4,6-trifluorobenzyl)-1′,4′,5′,11′-tetrahydro-3H,3′H,7′H-spiro[benzofuran-2,6′-[2,7]methanopyrido[1,2-a][1,4]diazonine]-10′-carboxamide]
pLAI reporter virus; read-out: RLUC 50% HS EC50
  EC50: 2.3 nM
pLAI reporter virus; read-out: RLUC CCM EC50
  EC50: 0.1 nM
HIV-1 (IIIB); [1]
  EC50: 1.3 nM
In vitro
  CC50 at 5 days: 4810 nM

## COC1=NS[C@]2(CC[C@H](C)N3C[C@H]2n2cc(C(=O)NCc4ccc(F)cc4F)c(=O)c(O)c2C3=O)C1 [Example 145, (3′S,5R,7′R)—N-(2,4-difluorobenzyl)-12′-hydroxy-3-methoxy-3′-methyl-1′,11′-dioxo-1′,4′,5′,11′-tetrahydro-3′H,4H,7′H-spiro[isothiazole-5,6′-[2,7]methanopyrido[1,2-a][1,4]diazonine]-10′-carboxamide]
pLAI reporter virus; read-out: RLUC 50% HS EC50
  EC50: 7.5 nM
pLAI reporter virus; read-out: RLUC CCM EC50
  EC50: 1.1 nM
HIV-1 (IIIB); [1]
  EC50: 3.8 nM
In vitro
  CC50 at 5 days: ≥ 50000 nM

## COc1ccc(CN2C(C)=NO[C@@]23CC[C@H](C)N2C[C@H]3n3cc(C(=O)NCc4ccc(F)cc4F)c(=O)c(O)c3C2=O)cc1 [Example 147, (3′S,5R,7′R)—N-(2,4-difluorobenzyl)-12′-hydroxy-4-(4-methoxybenzyl)-3,3′-dimethyl-1′,11′-dioxo-1′,4′,5′,11′-tetrahydro-3′H,4H,7′H-spiro[[1,2,4]oxadiazole-5,6′-[2,7]methanopyrido[1,2-a][1,4]diazonine]-10′-carboxamide]
pLAI reporter virus; read-out: RLUC 50% HS EC50
  EC50: 12.3 nM
pLAI reporter virus; read-out: RLUC CCM EC50
  EC50: 1.3 nM
HIV-1 (IIIB); [1]
  EC50: 4.1 nM
In vitro
  CC50 at 5 days: 7530 nM

## CC1=NO[C@@]2(CC[C@H](C)N3C[C@H]2n2cc(C(=O)NCc4ccc(F)cc4F)c(=O)c(O)c2C3=O)N1 [Example 148, (3′S,5R,7′R)—N-(2,4-difluorobenzyl)-12′-hydroxy-3,3′-dimethyl-1′,11′-dioxo-1′,4′,5′,11′-tetrahydro-3′H,4H,7′H-spiro[[1,2,4]oxadiazole-5,6′-[2,7]methanopyrido[1,2-a][1,4]diazonine]-10′-carboxamide]
pLAI reporter virus; read-out: RLUC 50% HS EC50
  EC50: 21 nM
pLAI reporter virus; read-out: RLUC CCM EC50
  EC50: 1.1 nM
HIV-1 (IIIB); [1]
  EC50: 3.4 nM
In vitro
  CC50 at 5 days: ≥ 50000 nM

## CC1=NO[C@@]2(CC[C@H](C)N3C[C@H]2n2cc(C(=O)NCc4ccc(F)cc4F)c(=O)c(O)c2C3=O)N1C [Example 149a, (3′S,5R,7′R)—N-(2,4-difluorobenzyl)-12′-hydroxy-3,3′,4-trimethyl-1′,11′-dioxo-1′,4′,5′,11′-tetrahydro-3′H,4H,7′H-spiro[[1,2,4]oxadiazole-5,6′-[2,7]methanopyrido[1,2-a][1,4]diazonine]-10′-carboxamide]
pLAI reporter virus; read-out: RLUC 50% HS EC50
  EC50: 4.8 nM
pLAI reporter virus; read-out: RLUC CCM EC50
  EC50: 0.8 nM
HIV-1 (IIIB); [1]
  EC50: 2 nM
In vitro
  CC50 at 5 days: ≥ 50000 nM
